Measured values from US9695155B2, “Herbicidal substituted pyrimidinyloxy benzene compounds” (E. I. DU PONT DE NEMOURS AND COMPANY, priority 2013, dated 2017).

How the values were obtained:
smartweed = experiment: Test E preemergence; assay type: in vivo, ladysthumb smartweed; conditions: for Smartweed plant response rating: scale 0 to 100 (0 no effect, 100 complete control); for Plant response rating, Smartweed: scale 0 to 100, 0 no effect, 100 complete control
Source text: Seeds of plant species selected from corn (Zea mays), soybean (Glycine max), velvetleaf (Abutilon theophrasti), lambsquarters (Chenopodium album), wild poinsettia (Euphorbia heterophylla), palmer pigweed (Amaranthus palmeri), waterhemp (common waterhemp, Amaranthus rudis), surinam grass (Brachiaria decumbens), large (Lg) crabgrass (Digitaria sanguinalis), Brazilian crabgrass (Digitaria horizontalis), fall panicum (Panicum dichotomiflorum), giant foxtail (Setaria faberii), green foxtail (Setaria viridis), goosegrass (Eleusine indica), johnsongrass (Sorghum halepense), ragweed (common ragweed, Ambrosia elatior), barnyardgrass (Echinochloa crus-galli), sandbur (southern sandbur, Cenchrus echinatus), arrowleaf sida (Sida rhombifolia), Italian ryegrass (Lolium multiflorum), dayflower (Virginia (VA) dayflower, Commelina virginica), field bindweed (Convolvulus arvensis), morningglory (Ipomoea coccinea), nightshade (eastern black nightshade, Solanum ptycanthum), kochia (Kochia scoparia), yellow nutsedge (Cyperus esculentus), cocklebur (common cocklebur, Xanthium strumarium), smartweed (ladysthumb smartweed, and hairy beggarticks (Bidens pilosa), were planted into a silt loam soil and treated preemergence with test chemicals formulated in a non-phytotoxic solvent mixture which included a surfactant.
At the same time, plants from these crop and weed species and also horseweed (Canada horseweed, Conyza canadensis), waterhemp_RES1, (ALS & Triazine resistant common waterhemp, Amaranthus rudis), and waterhemp_RES2, (ALS & HPPD resistant common waterhemp, Amaranthus rudis) were planted in pots containing Redi-Earth® planting medium (Scotts Company, 14111 Scottslawn Road, Marysville, Ohio 43041) comprising spaghnum peat moss, vermiculite, wetting agent and starter nutrients were treated with postemergence applications of test chemicals formulated in the same manner. Plants ranged in height from 2 to 18 cm for postemergence treatments (1- to 4-leaf stage). Treated plants and controls were maintained in a greenhouse for 14 to 21 days, after which time all species were compared to controls and visually evaluated. Plant response ratings, summarized in Table E, are based on a scale of 0 to 100 where 0 is no effect and 100 is complete control. A dash (-) response means no test result.

deadnettle = experiment: Test C postemergence; assay type: in vivo, Lamium amplexicaule; conditions: for Plant response rating (0 to 100), Deadnettle: postemergence; for Plant response rating, Deadnettle: Postemergence, scale 0 to 100 (0 no effect, 100 complete control)
Source text: Seeds of plant species selected from blackgrass (Alopecurus myosuroides), Italian ryegrass (Lolium multiflorum), wheat, winter (winter wheat, Triticum aestivum), galium (catchweed bedstraw, Galium aparine), corn (Zea mays), large (Lg) crabgrass (Digitaria sanguinalis), giant foxtail (Setaria faberii), johnsongrass (Sorghum halepense), lambsquarters (Chenopodium album), morningglory (Ipomoea coccinea), yellow nutsedge (Cyperus esculentus), pigweed (Amaranthus retroflexus), ragweed (common ragweed, Ambrosia elatior), soybean (Glycine max), barnyardgrass (Echinochloa crus-galli), oilseed rape (Brassica napus), waterhemp (common waterhemp, Amaranthus rudis), kochia (Kochia scoparia), wild oat (Avena fatua), surinam grass (Brachiaria decumbens), foxtail, green (green foxtail, Setaria viridis), goosegrass (Eleusine indica), bromegrass, downy (downy bromegrass, Bromus tectorum), nightshade (eastern black nightshade, Solanum ptycanthum), cocklebur (common cocklebur, Xanthium strumarium), cupgrass, woolly (woolly cupgrass, Eriochloa villosa), bermudagrass (Cynodon dactylon), sunflower, (common oilseed sunflower, Helianthus annuus), Russian thistle (Salsola kali), and velvetleaf (Abutilon theophrasti) were planted into a blend of loam soil and sand and treated preemergence with test chemicals formulated in a non-phytotoxic solvent mixture which included a surfactant.
At the same time, plants selected from these crop and weed species and also barley, winter (winter barley, Hordeum vulgare), windgrass (Apera spica-venti), chickweed (common chickweed, Stellaria media), deadnettle (henbit deadnettle, Lamium amplexicaule), and canarygrass (littleseed canarygrass, Phalaris minor) were planted in pots containing Redi-Earth® planting medium (Scotts Company, 14111 Scottslawn Road, Marysville, Ohio 43041) comprising spaghnum peat moss, vermiculite, wetting agent and starter nutrients and treated with postemergence applications of test chemicals formulated in the same manner. Plants ranged in height from 2 to 18 cm (1- to 4-leaf stage) for postemergence treatments. Treated plants and controls were maintained in a greenhouse for 13 to 15 days, after which time all species were compared to controls and visually evaluated. Plant response ratings, summarized in Table C, are based on a scale of 0 to 100 where 0 is no effect and 100 is complete control. A dash (-) response means no test result.

rice flatsedge = experiment: Test G flood (paddy water application); assay type: in vivo, Cyperus iria; conditions: after 21 days, scale 0 to 100, 0 no effect, 100 complete control
Source text: (§1) Three plastic pots (ca. 16-cm diameter) per rate were partially filled with sterilized Tama silt loam soil comprising a 35:50:15 ratio of sand, silt and clay and 2.6% organic matter. Separate plantings for each of the three pots were as follows. Seeds from the U.S. of monochoria (Monochoria vaginalis), sedge, umbrella (small-flower umbrella sedge, Cyperus difformis), hardstem bulrush (Scirpus juncoides), and redstem (purple redstem, Ammannia coccinea), were planted into one 16-cm pot for each rate. Seeds from the U.S. of rice flatsedge (Cyperus iria), bearded sprangletop (Leptochloa fascicularis), one stand of 9 or 10 water seeded rice seedlings (Oryza sativa cv. ‘Japonica—M202’), and two stands of 3 or 4 transplanted rice seedlings (Oryza sativa cv. ‘Japonica—M202’) were planted into one 16-cm pot for each rate. Seeds from the U.S. of barnyardgrass (Echinochloa crus-galli), and late watergrass (Echinochloa oryzicola) were planted into one 16-cm pot for each rate. Plantings were sequential so that crop and weed species were at the 2.0 to 2.5-leaf stage at time of treatment.
(§2) Potted plants were grown in a greenhouse with day/night temperature settings of 30/27° C., and supplemental balanced lighting was provided to maintain a 16-hour photoperiod. Test pots were maintained in the greenhouse until test completion.
(§3) At time of treatment, test pots were flooded to 3 cm above the soil surface, treated by application of test compounds directly to the paddy water, and then maintained at that water depth for the duration of the test. Effects of treatments on rice and weeds were visually evaluated by comparison to untreated controls after 21 days. Plant response ratings, summarized in Table G, are based on a scale of 0 to 100 where 0 is no effect and 100 is complete control. A dash (-) response means no test result.

monochoria = experiment: Test G flood (paddy water application); assay type: in vivo, Monochoria vaginalis; conditions: after 21 days, scale 0 to 100, 0 no effect, 100 complete control
Source text: as §1, §2, §3

sedge, umbrella = experiment: Test G flood (paddy water application); assay type: in vivo, Cyperus difformis; conditions: after 21 days, scale 0 to 100, 0 no effect, 100 complete control
Source text: as §1, §2, §3

late watergrass = experiment: Test G flood (paddy water application); assay type: in vivo, Echinochloa oryzicola; conditions: after 21 days, scale 0 to 100, 0 no effect, 100 complete control
Source text: as §1, §2, §3

FC(F)c1cccc(Oc2ncc(Cl)cn2)c1-n1cc(Br)cn1 [Compound 194, 2-[2-(4-bromo-1H-pyrazol-1-yl)-3-(difluoromethyl)phenoxy]-5-chloropyrimidine]
Smartweed plant response rating (smartweed; 31 g ai/ha): 0
Smartweed plant response rating (smartweed; 62 g ai/ha): 90

N#Cc1cccc(Oc2ncc(F)cn2)c1-n1cc(Cl)cn1 [Compound 73]
Smartweed plant response rating (smartweed; 16 g ai/ha): 0
Smartweed plant response rating (smartweed; 31 g ai/ha): 0
Smartweed plant response rating (smartweed; 62 g ai/ha): 20
Plant response rating, Smartweed (smartweed; 125 g ai/ha): 98
Plant response rating, Smartweed (smartweed; 250 g ai/ha): 98

Fc1cnc(Oc2ccccc2-n2cc(Br)cn2)nc1 [Compound 10, 2-[2-(4-bromo-1H-pyrazol-1-yl)phenoxy]-5-fluoropyrimidine]
Plant response rating (0 to 100), Deadnettle (deadnettle; 125 g ai/ha): 80
Plant response rating (0 to 100), Deadnettle (deadnettle; 250 g ai/ha): 95
Plant response rating, Deadnettle (deadnettle; 31 g ai/ha, 13 to 15 days): 50
Plant response rating, Deadnettle (deadnettle; 62 g ai/ha): 60

FC(F)(F)c1cnn(-c2ccccc2Oc2ncc(Br)cn2)c1 [Compound 18, 5-bromo-2-[2-[4-(trifluoromethyl)-1H-pyrazol-1-yl]phenoxy]pyrimidine]
Plant response rating, Flatsedge, Rice (rice flatsedge; 32 g ai/ha): 30
Plant response rating, Flatsedge, Rice (rice flatsedge; 64 g ai/ha): 75
Plant response rating, Flatsedge, Rice (rice flatsedge; 125 g ai/ha): 100
Plant response rating, Flatsedge, Rice (rice flatsedge; 250 g ai/ha): 100
Plant response rating, Monochoria (monochoria; 32 g ai/ha): 95
Plant response rating, Monochoria (monochoria; 64 g ai/ha): 95
Plant response rating, Monochoria (monochoria; 125 g ai/ha): 100
Plant response rating, Monochoria (monochoria; 250 g ai/ha): 100
Plant response rating, Sedge, Umbrella (sedge, umbrella; 32 g ai/ha): 0
Plant response rating, Sedge, Umbrella (sedge, umbrella; 64 g ai/ha): 20
Plant response rating, Sedge, Umbrella (sedge, umbrella; 125 g ai/ha): 35
Plant response rating, Sedge, Umbrella (sedge, umbrella; 250 g ai/ha): 100
Plant response rating, Watergrass, Late (late watergrass; 32 g ai/ha): 0
Plant response rating, Watergrass, Late (late watergrass; 64 g ai/ha): 0
Plant response rating, Watergrass, Late (late watergrass; 125 g ai/ha): 0
Plant response rating, Watergrass, Late (late watergrass; 250 g ai/ha): 70

FC(F)(F)c1cnn(-c2ccccc2Oc2ncc(Cl)cn2)c1 [Compound 16]
Plant response rating, Flatsedge, Rice (rice flatsedge; 32 g ai/ha): 40
Plant response rating, Flatsedge, Rice (rice flatsedge; 64 g ai/ha): 85
Plant response rating, Flatsedge, Rice (rice flatsedge; 125 g ai/ha): 100
Plant response rating, Flatsedge, Rice (rice flatsedge; 250 g ai/ha): 100
Plant response rating, Monochoria (monochoria; 32 g ai/ha): 95
Plant response rating, Monochoria (monochoria; 64 g ai/ha): 95
Plant response rating, Monochoria (monochoria; 125 g ai/ha): 100
Plant response rating, Monochoria (monochoria; 250 g ai/ha): 100
Plant response rating, Sedge, Umbrella (sedge, umbrella; 32 g ai/ha): 0
Plant response rating, Sedge, Umbrella (sedge, umbrella; 64 g ai/ha): 60
Plant response rating, Sedge, Umbrella (sedge, umbrella; 125 g ai/ha): 100
Plant response rating, Sedge, Umbrella (sedge, umbrella; 250 g ai/ha): 100
Plant response rating, Watergrass, Late (late watergrass; 32 g ai/ha): 0
Plant response rating, Watergrass, Late (late watergrass; 64 g ai/ha): 0
Plant response rating, Watergrass, Late (late watergrass; 125 g ai/ha): 0
Plant response rating, Watergrass, Late (late watergrass; 250 g ai/ha): 80

Clc1cnc(Oc2ccccc2-n2cc(Br)cn2)nc1 [Compound 7, 2-[2-(4-bromo-1H-pyrazol-1-yl)phenoxy]-5-chloropyrimidine]
Plant response rating (0 to 100), Deadnettle (deadnettle; 125 g ai/ha): 98
Plant response rating (0 to 100), Deadnettle (deadnettle; 250 g ai/ha): 100
Plant response rating, Deadnettle (deadnettle; 31 g ai/ha, 13 to 15 days): 85
Plant response rating, Deadnettle (deadnettle; 62 g ai/ha): 98
